The source made the active and inactive calls. The calls are words filed in the database; no cut-off is given here.
Molecular target: Photosystem II protein D1 (Chlamydomonas reinhardtii) (UniProt P07753)
Assay: Non-competitive displacement of [14C]atrazine from Chlamydomonas reinhardtii photosystem II protein D1 assessed as DCIP-reduction by double-reciprocal plot

Activity: Active
Structure (SMILES): CCCCCCCC1=C(Br)c2nc3ccccn3c2C(=O)C1=O

— ChEMBL document CHEMBL3046764, “Heterocyclic ortho-quinones, a novel type of Photosystem II inhibitors” (Biochim Biophys Acta, 2001)
